Experimental data: patent publication US9393249B2, “Antimicrobial composition” (INSTITUTE OF TECHNOLOGY SLIGO, priority 2008, dated 2016)

Test system: clinical isolates of Mastitis causing Staphylococcus aureus
Experiment: Inhibition assay (3 day repeats) on mastitis clinical isolates
Type: cell-based
Conditions: FIG. 11b
Experimental: • Escherichia coli (NCIMB 8545), Staphylococcus aureus (NCIMB 9518) and Pseudomonas aeruginosa (NCIMB 8626) are grown on nutrient agar or in nutrient broth for 24 hrs at 37° C. • Candida albicans (NCIMB 3179) and Saccharomyces cerevisiae are grown on sabaroud dextrose agar or in sabaroud dextrose broth for 24 hrs at 37° C. • Propionibacterium acnes (P. acnes ATCC/NTC 11827) is grown anaerobically on blood agar or in nutrient broth for 72 hrs at 37° C. • 22 isolates of Staphylococcus aureus from clinical mastitis obtained from Sligo regional Veterinary Laboratories are grown on nutrient agar or in nutrient broth for 24 hrs at 37° C. • For testing conducted in the Sligo Regional General Hospital; five Beta haemolytic Streptococci Group A clinical isolates are grown on blood agar or in nutrient broth for 24 hrs at 37° C. • Campylobacter coli (NCTC 11366) is grown on brain heart infusion agar or in brain heart infusion broth for 72 hrs at 37° C. • Campylobacter jejuni (NCTC 11322) and three clinical isolates are grown on brain heart infusion agar or in brain heart infusion broth for 72 hrs at 37° C. • MRSA (ATCC 43300) and seven clinical isolates are grown on nutrient agar or in brain heart infusion broth for 72 hrs at 37° C. • Laboratory mould isolates are grown on sabaroud dextrose agar or in sabaroud dextrose broth for 48 hrs at 25° C. • Botrytis cinerea is grown on sabaroud dextrose agar or in sabaroud dextrose broth for 48 hrs at 25° C.
Agar plates are inoculated by swabbing overnight culture onto the plate surface. Plates are allowed to stand at room temperature for 15 minutes before use. Wells 8.2 mm diameter are bored into the surface of the agar. One hundred and eighty μl of sample is placed into each well. The samples diffuse into the agar around the well and are assayed for an ability to produce a zone of inhibition. Plates are incubated for 24, 48 or 72 hrs and zones of inhibition are measured using an Autodata automatic zone reader. The diameter of zones, including the diameter of the well (8.2 mm), is recorded. […]

SMILES	sensitivity of clinical isolate number 15
CN[C@H](CC(C)C)C(=O)N[C@H]1C(=O)N[C@@H](CC(N)=O)C(=O)N[C@H]2C(=O)N[C@H]3C(=O)N[C@H](C(=O)N[C@H](C(=O)O)c4cc(O)cc(O)c4-c4cc3ccc4O)[C@H](O)c3ccc(c(Cl)c3)Oc3cc2cc(c3O[C@@H]2O[C@H](CO)[C@@H](O)[C@H](O)[C@H]2O[C@H]2C[C@](C)(N)[C@H](O)[C@H](C)O2)Oc2ccc(cc2Cl)[C@H]1O [Vancomycin]	resistant
[H]/N=C(/N)N[C@H]1[C@H](O)[C@@H](O)[C@H](O[C@@H]2O[C@@H](C)[C@](O)(C=O)[C@H]2O[C@@H]2O[C@@H](CO)[C@H](O)[C@@H](O)[C@@H]2NC)[C@@H](N/C(N)=N\[H])[C@@H]1O [Streptomycin]	resistant
O=C(N[C@H](CO)[C@H](O)c1ccc([N+](=O)[O-])cc1)C(Cl)Cl [Chloramphenicol]	only mild sensitivity

Test system: L929 cells
Experiment: ISO 10993-5 agar overlay cytotoxicity (neutral red)
Conditions: 24 hrs
Experimental: ISO 10993, agar overlay tests for cytotoxicity: in vitro method is also used, employing L929 cells (mouse fibroblasts ECACC 85011425). In brief; a confluent monolayer of cells is incubated, this is then covered with a layer fresh medium (EMEM, 2 mM L-Glutamine, 5% FBS, 2% Penicillin-Streptomycin) containing 1.5 g/l of soft agar and allowed to solidify. One tenth of the surface is covered with test materials (previously described) and incubated for 24 hrs. Post incubation the test material is carefully removed and a vital stain (neutral red) in fresh media added. After incubation this is removed, the cells washed and then the dye extracted from the cells and quantified spectrophotometrically for cell viability.
Percent toxicity was calculated according to the formula: % Toxicity=1−(OD average of test material wells/average OD of corresponding control wells (sodium azide added))×100. Included in the assay are a 50% concentration of A^3IS, a range of concentrations of commercial silver containing gel and commercial zinc containing gel product, compared to sodium azide (positive control). […] For the agar overlay toxicity assay the amount of test materials used was similar to that used for the initial direct contact assays of 100 mg per well however the contact time was extended to 24 hrs.

SMILES	% Toxicity [%]
[N-]=[N+]=[N-] [sodium azide]	100

Test system: Candida albicans
Experiment: Well/disc diffusion inhibition assay of combinations
Type: cell-based
Conditions: 50 μl A^3IS + 50 μg agent versus 100 μl A^3IS alone; FIG. 19
Experimental: Various combinations of A^3IS (from Example 3) and antibiotics/antifungal agents were tested against a placebo and A^3IS alone using a well/disc diffusion method. […] Well/Disc Diffusion Methods for Measurement of Microbial Inhibition: Agar plates were inoculated by swabbing overnight culture onto the plate surface. Plates were allowed to stand at room temperature for 15 minutes before use. Wells 8.2 mm diameter were bored into the surface of the agar. 100 μl of samples (a) to (c) was placed into each well. The samples diffuse into the agar around the well and are assayed for an ability to produce a zone of inhibition. Plates are incubated for 24, 48 or 72 hrs and zones of inhibition are measured. The diameter of zones, including the diameter of the well (8.2 mm) was recorded.

SMILES	effect of combination with hydrogen peroxide source (zone of inhibition)
CC(=O)N1CCN(c2ccc(OCC3COC(Cn4ccnc4)(c4ccc(Cl)cc4Cl)O3)cc2)CC1 (centres unmarked) [Ketoconazole]	effects going beyond a combination/additive effects with hydrogen peroxide
CN(C/C=C/C#CC(C)(C)C)Cc1cccc2ccccc12 [Terbidifine]	effects going beyond a combination/additive effects with hydrogen peroxide
Cc1cc(C2CCCCC2)n(O)c(=O)c1.NCCO [Cyclopiroxalomine]	effects going beyond a combination/additive effects with hydrogen peroxide
Clc1ccccc1C(c1ccccc1)(c1ccccc1)n1ccnc1 [Clotrimazole]	effects going beyond a combination/additive effects with hydrogen peroxide

Test system: S. aureus NCIMB 9587
Experiment: Checkerboard synergy test
Type: cell-based, Staphylococcus aureus
Conditions: MIC as two-fold dilution fraction of each agent's final dilution (A^3IS 3%; antibiotics 1:100 to 1:3,200,000); overnight 35° C.
Experimental: Stock solutions were prepared according to published standards (CLSI (Clinical and Laboratory Standards Institute): Performance Standards for Antimicrobial Susceptibility testing. Fifteenth Informational Supplement. CLSI document M100-S15. Pennsylvania USA 2005, 19087-1898)
Synergy tests were performed in 96-well microtiter plates containing the A^3IS (from Example 3)/antibiotic combinations in two fold dilutions dispensed in a checkerboard fashion on the day of the assay. Each well contained 0.1 mL of A^3IS/antimicrobial combinations. A suspension of S. aureus test culture was prepared from an overnight broth culture to yield a final inoculum of approximately 3×10^5 to 5×10^5 CFU/mL. Twenty microliters of this suspension was added to all but the sterility control wells. MICs were read after overnight incubation at 35° C. Growth and sterility controls were included in each plate. Each isolate was tested twice. Growth was determined by visually examining each well for evidence of turbidity.
For the first clear well in each row of the microtiter plate containing both antimicrobial agents, the fractional inhibitory concentration (FIC) was calculated as follows: FIC of drug A (FICA)=MIC of drug A in combination/MIC of drug A alone, and the FIC of drug B (FICB)=MIC of drug B in combination/MIC of drug B alone.

SMILES	MICs for A^3IS & antibiotics on S. aureus NCIMB 9587
CC1(C)S[C@@H]2[C@H](NC(=O)[C@H](N)c3ccc(O)cc3)C(=O)N2[C@H]1C(=O)O [Amoxicillin]	¼
CC1=C(C(=O)O)N2C(=O)[C@@H](NC(=O)[C@H](N)C3=CCC=CC3)[C@H]2SC1 [Velocef, Cefradine]	¼
CC[C@H]1OC(=O)[C@H](C)[C@@H](O[C@H]2C[C@@](C)(OC)[C@@H](O)[C@H](C)O2)[C@H](C)[C@@H](O[C@@H]2O[C@H](C)C[C@H](N(C)C)[C@H]2O)[C@](C)(O)C[C@@H](C)C(=O)[C@H](C)[C@@H](O)[C@]1(C)O [Erythrocin]	½
CO/N=C(\C(=O)N[C@@H]1C(=O)N2C(C(=O)O)=C(COC(N)=O)CS[C@H]12)c1ccco1 [Zinacef, Cefuroxime]	½
Cc1onc(-c2c(F)cccc2Cl)c1C(=O)N[C@@H]1C(=O)N2[C@@H]1SC(C)(C)[C@@H]2C(=O)O [Flucloxacillin]	½
CC[C@H]1OC(=O)[C@H](C)[C@@H](O[C@H]2C[C@@](C)(OC)[C@@H](O)[C@H](C)O2)[C@H](C)[C@@H](O[C@@H]2O[C@H](C)C[C@H](N(C)C)[C@H]2O)[C@](C)(OC)C[C@@H](C)C(=O)[C@H](C)[C@@H](O)[C@]1(C)O [KIacid]	½
